# Reference: patent publication US20250042916A1 (ACONCAGUA BIO, INC., priority 2023, published 2025)
# Target: human calcitonin receptor (CTR) and RAMP3 (AMY3) in COS-7 cells (Homo sapiens, UniProt O60896+P30988)
# Assay: Amylin Receptor cAMP Assay I
# Type: cell-based
# Details: values marked *: Amylin Receptor cAMP Assay I; COS-7/AMY3 cells; read-out: Amylin Receptor cAMP Stimulation Activity: EC50
# From the text: Amylin Receptor cAMP Assay I
# AMYRs are heterodimers of the class B calcitonin (CT) G-protein-coupled receptor (CTR) and receptor activity-modifying proteins (RAMPs). All three RAMPs can interact with the CTR and form AMY1, AMY2, AMY3 with RAMP1, RAMP2 and RAMP3, respectively. Like other class B1 GPCRs, the CT receptor family is canonically coupled to Gs-mediated cAMP production, and measurement of cAMP accumulation has been the primary assay used to determine peptide selectivity and potency.
# To optimize functional activity directed toward Gas coupling, COS-7 cells were stably transfected with human calcitonin receptor (CTR) and RAMP3, simultaneously. 100× concentration of compound working solutions were prepared (Agilent Technologies Bravo) with 4-fold serial dilution in 384-well Echo LDV plate (Labcyte, Cat #LP-0200). 100 nL/well 100× concentration of compound working solutions were moved to 384-well white low volume plate (Greiner, Cat #784075) using Labcyte ECHO550. 1×10^5 cells/mL COS-7/CTR or COS-7/AMY3 (HD Biosciences) cell suspensions prepared with assay buffer [DPBS containing 0.5 mM IBMX (Sigma, Cat #15879) and 0.1% BSA (GENVIEW, Cat #FA016-100 g)], 10 μL cell suspensions were added to each well of previous generated assay plate which already contains 100 nL compound at 100× concentration using ThermoFisher Multidrop Combi (1000 cells/well). Seal the plate and incubate at 37° C. with 5% CO2 for 30 min.
# After incubation, the cAMP assay signal was generated using cAMP Hi-range Kit (Cisbio). 5 μL cAMP-d2 working solution was added to each well, followed by 5 μL Anti-cAMP antibody-cryptate working solution which was added to each well using ThermoFisher Multidrop Combi. The samples were then incubated at room temperature for 1 hour protected from light. the fluorescence was read at 665 and 615 nm with Reader PerkinElmer EnVision.
# human calcitonin receptor (CTR) and RAMP3 (AMY3) in COS-7 cells, sequence (P30988 25-474): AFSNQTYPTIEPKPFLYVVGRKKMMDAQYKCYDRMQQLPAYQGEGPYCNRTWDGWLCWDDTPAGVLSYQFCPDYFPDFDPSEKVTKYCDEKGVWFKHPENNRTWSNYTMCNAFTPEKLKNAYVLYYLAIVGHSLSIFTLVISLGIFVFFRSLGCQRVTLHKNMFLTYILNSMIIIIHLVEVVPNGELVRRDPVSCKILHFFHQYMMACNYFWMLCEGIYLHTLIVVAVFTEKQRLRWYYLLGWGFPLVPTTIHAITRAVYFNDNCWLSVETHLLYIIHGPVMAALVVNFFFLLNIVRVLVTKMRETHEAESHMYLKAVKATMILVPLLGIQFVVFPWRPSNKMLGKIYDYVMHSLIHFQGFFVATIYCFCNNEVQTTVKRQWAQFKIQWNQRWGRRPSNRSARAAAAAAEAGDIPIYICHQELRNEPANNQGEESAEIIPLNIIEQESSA
# human calcitonin receptor (CTR) and RAMP3 (AMY3) in COS-7 cells, sequence (O60896 24-148): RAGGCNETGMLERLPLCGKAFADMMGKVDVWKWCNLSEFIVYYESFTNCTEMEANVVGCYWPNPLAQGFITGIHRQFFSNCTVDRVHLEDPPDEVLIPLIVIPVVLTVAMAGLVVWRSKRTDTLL
row,Compound,EC50 [nM]
1,"Cc1nnc(-c2c(CC(C)(C)c3ccc(F)cc3)nc(CC(C)C)c(C(N)=O)c2-c2ccc(C(=O)NCc3ccc(F)c(F)c3)s2)o1 [Compound 176, 4-(5-((3,4-difluorobenzyl)carbamoyl)thiophen-2-yl)-6-(2-(4-fluorophenyl)-2-methylpropyl)-2-isobutyl-5-(5-methyl-1,3,4-oxadiazol-2-yl)nicotinamide]",1280
2,"CCc1nc(CC(C)C)c(C(N)=O)c(-c2ccc(C(=O)NCc3ccc(F)c(F)c3)s2)c1-c1nnc(C)o1 [Compound 112, 4-[5-[(3,4-difluorophenyl)methylcarbamoyl]-2-thienyl]-6-ethyl-2-isobutyl-5-(5-methyl-1,3,4-oxadiazol-2-yl)pyridine-3-carboxamide]",> 11400
3,Cc1nnc(-c2c(CCC(=O)N3CCCC3)nc(CC(C)C)c(C(N)=O)c2-c2ccc(C(=O)NCc3ccc(F)c(F)c3)s2)o1 [Compound 182],23300
4,"Cc1nnc(-c2c(CC(O)c3ccc(F)cc3)nc(CC(C)C)c(C(N)=O)c2-c2ccc(C(=O)N[C@@H]3CCc4ccccc43)s2)o1 (stereo partly drawn) [Compound 185, 4-(5-(((R)-2,3-dihydro-1H-inden-1-yl)carbamoyl)thiophen-2-yl)-6-(2-(4-fluorophenyl)-2-hydroxyethyl)-2-isobutyl-5-(5-methyl-1,3,4-oxadiazol-2-yl)nicotinamide]",507
5,"Cc1nnc(-c2c(CCc3ccc(F)cc3)nc(CC(C)C)c(C(N)=O)c2-c2cc3ccccc3s2)o1 [Compound 127, 4-(1-benzothiophen-2-yl)-6-[2-(p-fluorophenyl)ethyl]-2-isobutyl-5-(5-methyl-1,3,4-oxadiazol-2-yl)nicotinamide]",495
6,"COCC1CN(c2nccc3cc(-c4c(C(N)=O)c(CC(C)C)nc(CCc5ccc(F)cc5)c4-c4nnc(C)o4)sc23)C1 [Compound 134, 6-(4-fluorophenethyl)-2-isobutyl-4-(7-(3-(methoxymethyl)azetidin-1-yl)thieno[2,3-c]pyridin-2-yl)-5-(5-methyl-1,3,4-oxadiazol-2-yl)nicotinamide]",1160
7,"Cc1nnc(-c2c(CCc3ccc(F)cc3)nc(CC(C)C)c(C(N)=O)c2-c2cc3ccnc(NCc4ccccn4)c3s2)o1 [Compound 200, 6-(4-fluorophenethyl)-2-isobutyl-5-(5-methyl-1,3,4-oxadiazol-2-yl)-4-(7-((pyridin-2-ylmethyl)amino)thieno[2,3-c]pyridin-2-yl)nicotinamide]",273
8,"Cc1nnc(-c2c(OCc3ccc(F)cc3)nc(CC(C)C)c(C(N)=O)c2-c2ccc(C(=O)NCc3ccc(F)c(F)c3)s2)o1 [Compound 146, 4-[5-[(3,4-difluorophenyl)methylcarbamoyl]-2-thienyl]-6-[(4-fluorophenyl)methoxy]-2-isobutyl-5-(5-methyl-1,3,4-oxadiazol-2-yl)pyridine-3-carboxamide]",973
9,"CC(C)Cc1nc(CCc2ccc(F)cc2)c(-c2nc(C(F)(F)F)no2)c(-c2ccc(C(=O)NCc3ccc(F)c(F)c3)s2)c1C(N)=O [Compound 105, N-(3,4-difluorophenyl)methyl-5-{5-carbamoyl-2-[2-(p-fluorophenyl)ethyl]-6-isobutyl-3-[3-(trifluoromethyl)-1,2,4-oxadiazol-5-yl]-4-pyridyl}-2-thenamide]",591
10,"Cc1nnc(-c2c(CCc3ccc(F)cc3)nc(CC(C)C)c(C(N)=O)c2-c2cc3cccc(Br)c3s2)o1 [Compound 129, 4-(7-bromo-1-benzothiophen-2-yl)-6-[2-(p-fluorophenyl)ethyl]-2-isobutyl-5-(5-methyl-1,3,4-oxadiazol-2-yl)nicotinamide]",940
11,"Cc1nnc(-c2c(CCc3ccc(F)cc3)nc(CC(C)C)c(C(N)=O)c2-c2cc3cccc(C#N)c3s2)o1 [Compound 138, 4-(7-cyano-1-benzothiophen-2-yl)-6-[2-(p-fluorophenyl)ethyl]-2-isobutyl-5-(5-methyl-1,3,4-oxadiazol-2-yl)nicotinamide]",2260
12,"Cc1nnc(-c2c(CCc3ccc(F)cc3)nc(CC(C)C)c(C(N)=O)c2-c2ccc(C(=O)N[C@H]3CCc4ccccc43)s2)o1 [Compound 118, (S)-4-(5-((2,3-dihydro-1H-inden-1-yl)carbamoyl)thiophen-2-yl)-6-(4-fluorophenethyl)-2-isobutyl-5-(5-methyl-1,3,4-oxadiazol-2-yl)nicotinamide]",211
13,"Cc1nnc(-c2c(CCN3CCCCC3)nc(CC(C)C)c(C(N)=O)c2-c2ccc(C(=O)NCc3ccc(F)c(F)c3)s2)o1 [Compound 179, 4-(5-((3,4-difluorobenzyl)carbamoyl)thiophen-2-yl)-2-isobutyl-5-(5-methyl-1,3,4-oxadiazol-2-yl)-6-(2-(piperidin-1-yl)ethyl)nicotinamide]",> 1000

# Compounds with a lower EC50, results first:
row,EC50 [nM],Compound
1,177,"Cc1nnc(-c2c(CCc3ccc(F)cc3)nc(CC(C)C)c(C(N)=O)c2-c2ccc(CN[C@@H]3CCc4ccccc43)s2)o1 [Compound 140, 4-(5-{[(R)-1-indanylamino]methyl}-2-thienyl)-6-[2-(p-fluorophenyl)ethyl]-2-isobutyl-5-(5-methyl-1,3,4-oxadiazol-2-yl)nicotinamide]"
2,162,"Cc1nnc(-c2c(CCc3ccc(F)cc3)nc(CC(C)C)c(C(N)=O)c2-c2ccc(C(=O)NCc3ccc(F)c(F)c3)cc2)o1 [Compound 126, 4-(p-{[(3,4-difluorophenyl)methyl]carbamoyl}phenyl)-6-[2-(p-fluorophenyl)ethyl]-2-isobutyl-5-(5-methyl-1,3,4-oxadiazol-2-yl)nicotinamide]"
3,134,"Cc1cc(-c2c(CCc3ccc(F)cc3)nc(CC(C)C)c(C(N)=O)c2-c2ccc(C(=O)NCc3ccc(F)c(F)c3)s2)on1 [Compound 151, N-(3,4-difluorophenyl)methyl-5-{5-carbamoyl-2-[2-(p-fluorophenyl)ethyl]-6-isobutyl-3-(3-methyl-5-isoxazolyl)-4-pyridyl}-2-thenamide]"
4,120,Cc1nnc(-c2c(NCc3ccc(F)cc3)nc(CC(C)C)c(C(N)=O)c2-c2ccc(C(=O)NCc3ccc(F)c(F)c3)s2)o1 [Compound 158]
5,99.3,"Cc1nnc(-c2c(CC(F)c3ccc(F)cc3)nc(CC(C)C)c(C(N)=O)c2-c2ccc(C(=O)N[C@@H]3CCc4ccccc43)s2)o1 (stereo partly drawn) [Compound 187, 4-(5-(((R)-2,3-dihydro-1H-inden-1-yl)carbamoyl)thiophen-2-yl)-6-(2-fluoro-2-(4-fluorophenyl)ethyl)-2-isobutyl-5-(5-methyl-1,3,4-oxadiazol-2-yl)nicotinamide]"
6,84.7,"Cc1noc(-c2c(CCc3ccc(F)cc3)nc(CC(C)C)c(C(N)=O)c2-c2ccc(C(=O)N[C@@H]3CCc4ccccc43)s2)n1 [Compound 101, N—[(R)-1-indanyl]-5-{5-carbamoyl-2-[2-(p-fluorophenyl)ethyl]-6-isobutyl-3-(3-methyl-1,2,4-oxadiazol-5-yl)-4-pyridyl}-2-thenamide]"
7,74,Cc1nnc(-c2c(CCc3ccc(F)cc3)nc(CC(C)C)c(C(N)=O)c2-c2ccc3c(NCc4ccc(F)c(F)c4)nccc3c2)o1 [Compound 162]
8,68.7,"Cc1nc(-c2c(CCc3ccc(F)cc3)nc(CC(C)C)c(C(N)=O)c2-c2ccc(C(=O)NCc3ccc(F)c(F)c3)s2)no1 [Compound 154, N-(3,4-difluorophenyl)methyl-5-{5-carbamoyl-2-[2-(p-fluorophenyl)ethyl]-6-isobutyl-3-(5-methyl-1,2,4-oxadiazol-3-yl)-4-pyridyl}-2-thenamide]"
9,12,"Cc1ncoc1-c1c(CCc2ccc(F)cc2)nc(CC(C)C)c(C(N)=O)c1-c1ccc(C(=O)NCc2ccc(F)c(F)c2)s1 [Compound 153, N-(3,4-difluorophenyl)methyl-5-{5-carbamoyl-2-[2-(p-fluorophenyl)ethyl]-6-isobutyl-3-(4-methyl-1,3-oxazol-5-yl)-4-pyridyl}-2-thenamide]"
10,6.2,"COc1cccc(CNC(=O)c2ccc(-c3c(C(N)=O)c(CC(C)C)nc(CCc4ccc(F)cc4)c3-c3nnc(C)o3)s2)c1 [Compound 113, N-(m-methoxyphenyl)methyl-5-{5-carbamoyl-2-[2-(p-fluorophenyl)ethyl]-6-isobutyl-3-(5-methyl-1,3,4-oxadiazol-2-yl)-4-pyridyl}-2-thenamide]"
11,2.3,"CC(C)Cc1nc(CCc2ccc(F)cc2)c(-c2nnc(C(C)C)o2)c(-c2ccc(C(=O)NCc3ccc(F)c(F)c3)s2)c1C(N)=O [Compound 147, N-(3,4-difluorophenyl)methyl-5-{5-carbamoyl-2-[2-(p-fluorophenyl)ethyl]-6-isobutyl-3-(5-isopropyl-1,3,4-oxadiazol-2-yl)-4-pyridyl}-2-thenamide]"
12,1.7,"Cc1nnc(-c2c(CCc3ccc(F)cc3)nc(CC(C)C)c(C(N)=O)c2-c2ccc(C(=O)N[C@@H]3CCc4cc(F)ccc43)s2)o1 [Compound 120, (R)-4-(5-((5-fluoro-2,3-dihydro-1H-inden-1-yl)carbamoyl)thiophen-2-yl)-6-(4-fluorophenethyl)-2-isobutyl-5-(5-methyl-1,3,4-oxadiazol-2-yl)nicotinamide]"
